Measured values published in patent publication US20220275391A1, “METHODS OF USING ALS INHIBITOR HERBICIDES FOR CONTROL OF UNWANTED VEGETATION IN ALS INHIBITOR HERBICIDE TOLERANT BETA VULGARIS PLANTS” (priority 2010, published 2022).

Assays:
SB574TL based sugar beet = assay: Field trial, phytotoxicity scoring on homozygous SB574TL mutant sugar beet; type: in vivo, Beta vulgaris; settings: BBCH 14
Source text: Based on SB574TL, F4—F6 seeds conferring the mutant allele of the endogenous ALS gene in the homozygous state were applied for further testing.

[1] = test system: regenerated plants from foramsulfuron tolerant cell culture (SB574TL); assay: Greenhouse herbicide treatment of plants regenerated from the foramsulfuron tolerant cell culture
Experimental: From this clone (SB574TL), shoots were regenerated in presence of the ALS inhibitor herbicide and then the shoots were transferred to MS medium containing 0.05 mg/l Naphthalene acetic acid (NAA).
(§1) During the first 10-15 days after transfer into soil containing substrate the plants were kept in an environment with high air humidity. During and after they were weaned to normal greenhouse air humidity regimes the plants were kept in the greenhouse under artificial light (12 h) at 20+−3° C./15+−2° C. day/night temperatures.
(§2) The herbicide doses tested were equivalent to 7-70 g a.i./ha for foramsulfuron and 1-10 g a.i./ha for iodosulfuron-methyl-sodium.

KLARINA = assay: Field trial, phytotoxicity scoring on ALS inhibitor sensitive reference variety KLARINA; settings: BBCH 14
Source text: (§3) The water quantity applied in the various applications equaled 200 l/ha. At 8, 14, 16, 17, 28, and 31 days (as indicated in the various Tables) after application (DAA) of the respective ALS inhibitor herbicide(s), the damages (phytotoxicity/phyto) on the different sugar beet plants were scored according to the scale from 0% to 100%.
(§4) In this context, “0%” means “no phytotoxicity/phyto” and “100%” means plants were completely killed.

wild type plants = assay: Greenhouse herbicide treatment of plants regenerated from wild type cell cultures; settings: lowest doses tested (range 7-70 g a.i./ha foramsulfuron, 1-10 g a.i./ha iodosulfuron-methyl-sodium, mixtures 7:1)
Experimental: as §1, §2

BERETTA = assay: Field trial, phytotoxicity scoring on ALS inhibitor sensitive reference variety BERETTA; type: in vivo, Beta vulgaris; settings: BBCH 14
Source text: as §3, §4

[2] = test system: sugar beet cell cultures (genotype 7T9044); assay: Selection of sugar beet cell colonies on foramsulfuron medium; type: cell-based, Beta vulgaris; settings: 3×10^−6 M of foramsulfuron in medium
Source text: Sugar beet cell cultures were initiated from seedlings of a diploid sugar beet genotype 7T9044 (as, for example, described by Alexander Dovzhenko, PhD Thesis, Title: “Towards plastid transformation in rapeseed (Brassica napus L.) and sugarbeet (Beta vulgaris L.)”, Ludwig-Maximilians-Universität München, Germany, 2001). Callus obtained therefrom was exposed to 10^−7 M foramsulfuron. Surviving and growing cell colonies were numbered and transferred after 4-6 weeks onto fresh medium containing 3×10^−7 M of the inhibitor. One of these cell colonies was able to grow not only at this concentration of the inhibitor but even in presence of 3×10^−6 M of foramsulfuron [CAS RN 173159-57-4].

COC(=O)c1ccc(I)cc1S(=O)(=O)[N-]C(=O)Nc1nc(C)nc(OC)n1.[Na+] [Iodosulfuron-methyl-sodium (A1-16), iodosulfuron-methyl-sodium]
% phyto (SB574TL based sugar beet; 7 g/ha, 8 days): 0%
% phyto (SB574TL based sugar beet; 7 g/ha, 14 days): 0%
% phyto (SB574TL based sugar beet; 7 g/ha, 28 days): 0%
% phyto (SB574TL based sugar beet; 15 gai/ha, 8 DAA): 0%
% phyto (SB574TL based sugar beet; 15 gai/ha, 17 DAA): 0%
% phyto (SB574TL based sugar beet; 15 gai/ha, 31 DAA): 0%
tolerance of regenerated plants to herbicide treatment ([1]; highest doses tested (range 7-70 g a.i./ha foramsulfuron, 1-10 g a.i./ha iodosulfuron-methyl-sodium, mixtures in the ratio 7:1), greenhouse): tolerated even the highest herbicide doses
% phyto (KLARINA; 7 g/ha, 8 days): 90%
% phyto (KLARINA; 7 g/ha, 14 days): 97%
% phyto (KLARINA; 7 g/ha, 28 days): 100%
% phyto (KLARINA; 15 gai/ha, 8 DAA): 83%
% phyto (KLARINA; 15 gai/ha, 17 DAA): 98%
% phyto (KLARINA; 15 gai/ha, 31 DAA): 100%
effect of herbicide treatment on wild type plants (wild type plants): killed

COc1cc(OC)nc(NC(=O)NS(=O)(=O)c2ncccc2C2=NOCCO2)n1.[Na+] [(A1-87)]
% phyto (SB574TL based sugar beet; 15 g/ha, 8 days): 0%
% phyto (SB574TL based sugar beet; 15 g/ha, 14 days): 0%
% phyto (SB574TL based sugar beet; 15 g/ha, 28 days): 0%
% phyto (SB574TL based sugar beet; 30 gai/ha, 8 DAA): 0%
% phyto (SB574TL based sugar beet; 30 gai/ha, 17 DAA): 0%
% phyto (SB574TL based sugar beet; 30 gai/ha, 31 DAA): 0%
% phyto (KLARINA; 15 g/ha, 8 days): 90%
% phyto (KLARINA; 15 g/ha, 14 days): 97%
% phyto (KLARINA; 15 g/ha, 28 days): 99%
% phyto (KLARINA; 30 gai/ha, 8 DAA): 83%
% phyto (KLARINA; 30 gai/ha, 17 DAA): 100%
% phyto (KLARINA; 30 gai/ha, 31 DAA): 100%

COc1cc(OC)nc(Oc2cccc(Oc3nc(OC)cc(OC)n3)c2C(=O)O)n1 [Bispyribac-sodium (C1-1), bispyribac-sodium]
% phyto (SB574TL based sugar beet; 50 g/ha, 8 days): 23%
% phyto (SB574TL based sugar beet; 50 g/ha, 14 days): 30%
% phyto (SB574TL based sugar beet; 50 g/ha, 28 days): 0%
% phyto (KLARINA; 50 g/ha, 8 days): 90%
% phyto (KLARINA; 50 g/ha, 14 days): 98%
% phyto (KLARINA; 50 g/ha, 28 days): 99%

COc1nc(C)nc(NC(=O)NS(=O)(=O)c2ccccc2OCCCl)n1 [Triasulfuron (A1-30), triasulfuron]
% phyto (SB574TL based sugar beet; 30 g/ha, 8 days (Table 3)): 0%
% phyto (SB574TL based sugar beet; 30 g/ha, 16 days): 0%
% phyto (SB574TL based sugar beet; 30 g/ha, 38 days): 0%
% phyto (BERETTA; 30 g/ha, 8 days): 80%
% phyto (BERETTA; 30 g/ha, 16 days): 98%
% phyto (BERETTA; 30 g/ha, 38 days): 100%

CCS(=O)(=O)c1cccnc1S(=O)(=O)NC(=O)Nc1nc(OC)cc(OC)n1 [Rimsulfuron (A1-26), rimsulfuron]
% phyto (KLARINA; 12.5 g/ha, 8 days): 81%
% phyto (KLARINA; 12.5 g/ha, 14 days): 85%
% phyto (KLARINA; 12.5 g/ha, 28 days): 76%

COc1nc(C)nc(NC(=O)NS(=O)(=O)c2ccccc2I)n1.[Na] [(A1-41), 2-iodo-N-[(4-methoxy-6-methyl-1,3,5-triazinyl)carbamoyl]benzene-sulfonamide sodium salt]
% phyto (SB574TL based sugar beet; 30 g/ha, 8 days): 14%
% phyto (SB574TL based sugar beet; 30 g/ha, 14 days): 10%
% phyto (SB574TL based sugar beet; 30 g/ha, 28 days): 0%
% phyto (KLARINA; 30 g/ha, 8 days): 90%
% phyto (KLARINA; 30 g/ha, 14 days): 98%
% phyto (KLARINA; 30 g/ha, 28 days): 100%

COC(=O)c1ccccc1S(=O)(=O)NC(=O)N(C)c1nc(C)nc(OC)n1 [Tribenuron-methyl (A1-31), tribenuron-methyl]
% phyto (KLARINA; 30 g/ha, 8 days): 91%
% phyto (KLARINA; 30 g/ha, 14 days): 98%
% phyto (KLARINA; 30 g/ha, 28 days): 100%

COc1cc(OC)nc(NC(=O)NS(=O)(=O)c2ncccc2C(=O)N(C)C)n1 [Nicosulfuron (A1-20), nicosulfuron]
% phyto (SB574TL based sugar beet; 60 g/ha, 8 days): 0%
% phyto (SB574TL based sugar beet; 60 g/ha, 14 days): 0%
% phyto (SB574TL based sugar beet; 60 g/ha, 28 days): 0%
% phyto (KLARINA; 60 g/ha, 8 days): 90%
% phyto (KLARINA; 60 g/ha, 14 days): 98%
% phyto (KLARINA; 60 g/ha, 28 days): 100%

COc1cc(OC)nc(NC(=O)NS(=O)(=O)c2ncccc2OCC(F)(F)F)n1 [Trifloxisulfuron-sodium (A1-32), trifloxysulfuron]
% phyto (SB574TL based sugar beet; 15 g/ha, 8 days (Table 3)): 0%
% phyto (SB574TL based sugar beet; 15 g/ha, 16 days): 0%
% phyto (SB574TL based sugar beet; 15 g/ha, 38 days): 0%
% phyto (BERETTA; 15 g/ha, 8 days): 80%
% phyto (BERETTA; 15 g/ha, 16 days): 98%
% phyto (BERETTA; 15 g/ha, 38 days): 100%

CC(C)C1(C)N=C(c2nc3ccccc3cc2C(=O)O)NC1=O (centres unmarked) [Imazaquin (B1-5), imazaquin]
% phyto (SB574TL based sugar beet; 100 g/ha, 8 days (Table 3)): 0%
% phyto (SB574TL based sugar beet; 100 g/ha, 16 days): 0%
% phyto (SB574TL based sugar beet; 100 g/ha, 38 days): 0%
% phyto (BERETTA; 100 g/ha, 8 days): 80%
% phyto (BERETTA; 100 g/ha, 16 days): 98%
% phyto (BERETTA; 100 g/ha, 38 days): 100%

COC(=O)c1sccc1S(=O)(=O)NC(=O)Nc1nc(C)nc(OC)n1 [Thifensulfuron-methyl (A1-29), thifensulfuron-methyl]
% phyto (KLARINA; 7.5 g/ha, 8 days): 90%
% phyto (KLARINA; 7.5 g/ha, 14 days): 98%
% phyto (KLARINA; 7.5 g/ha, 28 days): 100%

COc1cc(OC)nc(NC(=O)NS(=O)(=O)c2cc(NC=O)ccc2C(=O)N(C)C)n1 [Foramsulfuron (A1-13), foramsulfuron]
tolerance of regenerated plants to herbicide treatment ([1]; in vivo): tolerated even the highest herbicide doses
% phyto (KLARINA; 25 g/ha, 8 days): 85%
% phyto (KLARINA; 25 g/ha, 14 days): 83%
% phyto (KLARINA; 25 g/ha, 28 days): 86%
% phyto (KLARINA; 50 g/ha, 8 days): 90%
% phyto (KLARINA; 50 g/ha, 14 days): 92%
% phyto (KLARINA; 50 g/ha, 28 days): 94%
growth of selected cell colony (clone SB574TL) in presence of the inhibitor [2]: able to grow
effect of herbicide treatment on wild type plants (wild type plants): killed

COC(=O)c1ccc(CNS(C)(=O)=O)cc1S(=O)(=O)NC(=O)Nc1nc(OC)cc(OC)n1 [Mesosulfuron-methyl (A1-17), mesosulfuron-methyl]
% phyto (KLARINA; 60 g/ha, 8 days): 90%
% phyto (KLARINA; 60 g/ha, 14 days): 97%
% phyto (KLARINA; 60 g/ha, 28 days): 99%

COC(=O)c1ccccc1S(=O)(=O)NC(=O)Nc1nc(C)nc(OC)n1 [Metsulfuron-methyl (A1-28), metsulfuron-methyl]
% phyto (KLARINA; 8 g/ha, 8 days): 88%
% phyto (KLARINA; 8 g/ha, 14 days): 98%
% phyto (KLARINA; 8 g/ha, 28 days): 99%

COC(=O)c1ccccc1S(=O)(=O)NC(=O)Nc1nc(C)cc(C)n1 [Sulfometuron-methyl (A1-27), sulfometuron-methyl]
% phyto (SB574TL based sugar beet; 60 g/ha, 8 days (Table 3)): 0%
% phyto (SB574TL based sugar beet; 60 g/ha, 16 days): 3%
% phyto (SB574TL based sugar beet; 60 g/ha, 38 days): 0%
% phyto (BERETTA; 60 g/ha, 8 days): 80%
% phyto (BERETTA; 60 g/ha, 16 days): 97%
% phyto (BERETTA; 60 g/ha, 38 days): 100%

COC(=O)c1csc(C)c1S(=O)(=O)NC(=O)n1nc(OC)n(C)c1=O [Thiencarbazone-methyl (A2-3), thiencarbazone-methyl]
% phyto (KLARINA; 15 g/ha, 8 days): 90%
% phyto (KLARINA; 15 g/ha, 14 days): 97%
% phyto (KLARINA; 15 g/ha, 28 days): 100%
% phyto (KLARINA; 30 g/ha, 8 days): 90%
% phyto (KLARINA; 30 g/ha, 14 days): 97%
% phyto (KLARINA; 30 g/ha, 28 days): 100%

COc1cc(OC)n2nc(S(=O)(=O)Nc3c(Cl)ccc(C)c3Cl)nc2n1 [Metosulam (A3-5), metosulam]
% phyto (KLARINA; 30 g/ha, 8 days): 90%
% phyto (KLARINA; 30 g/ha, 14 days): 97%
% phyto (KLARINA; 30 g/ha, 28 days): 93%

COCc1cnc(C2=NC(C)(C(C)C)C(=O)N2)c(C(=O)O)c1 (centres unmarked) [Imazamox (B1-2), imazamox]
% phyto (SB574TL based sugar beet; 40 g/ha, 8 days): 0%
% phyto (SB574TL based sugar beet; 40 g/ha, 14 days): 0%
% phyto (SB574TL based sugar beet; 40 g/ha, 28 days): 0%
% phyto (KLARINA; 40 g/ha, 8 days): 90%
% phyto (KLARINA; 40 g/ha, 14 days): 97%
% phyto (KLARINA; 40 g/ha, 28 days): 99%

COc1ncc(F)c2nc(S(=O)(=O)Nc3c(F)cccc3F)nn12 [Florasulam (A3-3), florasulam]
% phyto (SB574TL based sugar beet; 10 g/ha, 8 days (Table 3)): 0%
% phyto (SB574TL based sugar beet; 10 g/ha, 16 days): 0%
% phyto (SB574TL based sugar beet; 10 g/ha, 38 days): 0%
% phyto (BERETTA; 10 g/ha, 8 days): 80%
% phyto (BERETTA; 10 g/ha, 16 days): 98%
% phyto (BERETTA; 10 g/ha, 38 days): 98%

COc1nn(C(=O)[N-]S(=O)(=O)c2ccccc2OC(F)(F)F)c(=O)n1C.[Na+] [Flucarbazone-sodium (A2-1), flucarbazone-sodium]
% phyto (SB574TL based sugar beet; 40 g/ha, 8 days (Table 3)): 0%
% phyto (SB574TL based sugar beet; 40 g/ha, 16 days): 0%
% phyto (SB574TL based sugar beet; 40 g/ha, 38 days): 0%
% phyto (BERETTA; 40 g/ha, 8 days): 80%
% phyto (BERETTA; 40 g/ha, 16 days): 89%
% phyto (BERETTA; 40 g/ha, 38 days): 89%
